Strand notation (5' to 3'): a small letter for the sugar, then the base; units joined by * are phosphorothioate-linked, units joined directly phosphodiester-linked; [ ] holds rarer units or linkages, { } end groups; capitals alone tell only the bases. e = 2'-O-(2-methoxyethyl) (MOE); k = constrained ethyl (cEt); [5mC] = 5-methylcytosine; d = 2'-deoxy (DNA); m = 2'-O-methyl
Tested on: Yap1 mRNA
Assay: Dose-dependent inhibition of human Yap1 in SNU-449 cells (Example 9, RTS36584)
Format: cell-based
Conditions: free uptake; for % UTC (Yap1 mRNA): approximately 48 hours; for IC50: linear regression on a log/linear plot
Method: Modified oligonucleotides described in the studies above were tested at various doses in SNU-449 cells. Cultured SNU-449 cells at a density of 10,000 cells per well were treated using free uptake with modified oligonucleotides diluted to concentrations described in the tables below. After approximately 48 hours, Yap1 mRNA levels were measured as previously described using the Human Yap1 primer-probe set RTS36584. Yap1 mRNA levels were normalized to total RNA content, as measured by RIBOGREEN®. Results are presented in the tables below as percent control of the amount of Yap1 mRNA relative to untreated control cells (% UTC). IC50s were calculated using a linear regression on a log/linear plot of the data in excel.

Row | Substance | % UTC (Yap1 mRNA) (31.3 nM) | % UTC (Yap1 mRNA) (125.0 nM) | % UTC (Yap1 mRNA) (500.0 nM) | % UTC (Yap1 mRNA) (2000.00 nM) | IC50
1 | 1197176 (kT*kG*kT*d[5mC]*dT*d[5mC]*dA*dT*dG*d[5mC]*d[5mC]*dT*dT*kA*kT*kA; antisense) [compound 1197176] | 66 % UTC | 37 % UTC | 19 % UTC | 6 % UTC | 100 nM
2 | 1197177 (kA*kT*kT*dG*dT*d[5mC]*dT*d[5mC]*dA*dT*dG*d[5mC]*d[5mC]*kT*kT*kA; antisense) [compound 1197177] | 56 % UTC | 29 % UTC | 8 % UTC | 2 % UTC | 30 nM
3 | 1197178 (kA*kA*kT*dT*dG*dT*d[5mC]*dT*d[5mC]*dA*dT*dG*d[5mC]*k[5mC]*kT*kT; antisense) [compound 1197178] | 64 % UTC | 36 % UTC | 14 % UTC | 4 % UTC | 100 nM
4 | 1197179 (kT*kG*kG*dA*dA*dA*dT*dT*dG*dT*d[5mC]*dT*d[5mC]*kA*kT*kG; antisense) [compound 1197179] | 58 % UTC | 38 % UTC | 17 % UTC | 7 % UTC | 100 nM
5 | 1197193 (AGGATGCATGGTTTTT; chemistry not fully specified) [compound 1197193] | 85 % UTC | 52 % UTC | 24 % UTC | 11 % UTC | 200 nM
6 | 1197213 (kT*kG*kT*dA*dT*dG*dT*d[5mC]*dA*dG*dA*dA*dG*kA*kG*kT; antisense) [compound 1197213] | 87 % UTC | 46 % UTC | 14 % UTC | 2 % UTC | 100 nM
7 | 1197214 (kA*kG*kT*dG*dT*dA*dT*dG*dT*d[5mC]*dA*dG*dA*kA*kG*kA; antisense) [compound 1197214] | 88 % UTC | 31 % UTC | 7 % UTC | 1 % UTC | 100 nM
8 | 1197215 (kA*kA*kG*dT*dG*dT*dA*dT*dG*dT*d[5mC]*dA*dG*kA*kA*kG) [compound 1197215] | 56 % UTC | 31 % UTC | 7 % UTC | 2 % UTC | 40 nM
9 | 1197216 (kA*kA*kA*dG*dT*dG*dT*dA*dT*dG*dT*d[5mC]*dA*kG*kA*kA; antisense) [compound 1197216] | 66 % UTC | 39 % UTC | 15 % UTC | 4 % UTC | 100 nM
10 | 1197217 (kT*kT*kA*dA*dA*dG*dT*dG*dT*dA*dT*dG*dT*k[5mC]*kA*kG) [compound 1197217] | 66 % UTC | 39 % UTC | 14 % UTC | 4 % UTC | 100 nM
11 | 1197223 (kT*kA*kA*dG*dT*dA*dA*dG*dG*dT*dT*dT*d[5mC]*k[5mC]*k[5mC]*kA; antisense) [compound 1197223] | 88 % UTC | 55 % UTC | 25 % UTC | 8 % UTC | 200 nM
12 | 1197229 (kG*kG*kA*dA*mA*dT*dT*dG*dT*d[5mC]*dT*d[5mC]*dA*kT*kG*k[5mC]; antisense) [compound 1197229] | 54 % UTC | 32 % UTC | 16 % UTC | 7 % UTC | 30 nM
13 | 1197235 (kA*kT*kT*dA*mG*dA*dG*dT*dA*dT*dG*dT*dG*kG*k[5mC]*kA; antisense) [compound 1197235] | 64 % UTC | 36 % UTC | 16 % UTC | 5 % UTC | 100 nM
14 | 1197236 (kT*kA*kT*dT*mA*dG*dA*dG*dT*dA*dT*dG*dT*kG*kG*k[5mC]; antisense) [compound 1197236] | 64 % UTC | 46 % UTC | 25 % UTC | 14 % UTC | 100 nM
15 | 1197271 (kT*kT*kT*dA*mA*dA*dG*dT*dG*dT*dA*dT*dG*kT*k[5mC]*kA; antisense) [compound 1197271] | 70 % UTC | 47 % UTC | 19 % UTC | 8 % UTC | 100 nM
16 | 1197309 (kG*kT*kA*dA*mU*dA*dT*dT*dG*d[5mC]*dA*dA*dT*k[5mC]*kT*kG; antisense) [compound 1197309] | 91 % UTC | 63 % UTC | 30 % UTC | 9 % UTC | 200 nM
17 | 1197312 (kT*kG*kT*dA*mU*dG*dT*d[5mC]*dA*dG*dA*dA*dG*kA*kG*kT; antisense) [compound 1197312] | 101 % UTC | 58 % UTC | 34 % UTC | 11 % UTC | 300 nM
18 | 1197313 (kA*kG*kT*dG*mU*dA*dT*dG*dT*d[5mC]*dA*dG*dA*kA*kG*kA; antisense) [compound 1197313] | 71 % UTC | 38 % UTC | 16 % UTC | 6 % UTC | 100 nM
19 | 1198202 (kG*kA*dA*dA*dT*dT*dG*dT*d[5mC]*dT*d[5mC]*eA*eT*eG*k[5mC]*k[5mC]; antisense) [compound 1198202] | 83 % UTC | 46 % UTC | 16 % UTC | 5 % UTC | 100 nM
20 | 1198203 (kG*kG*dA*dA*dA*dT*dT*dG*dT*d[5mC]*dT*e[5mC]*eA*eT*kG*k[5mC]) [compound 1198203] | 71 % UTC | 51 % UTC | 25 % UTC | 11 % UTC | 100 nM
21 | 1198211 (kA*kT*dT*dA*dG*dA*dG*dT*dA*dT*dG*eT*eG*eG*k[5mC]*kA) [compound 1198211] | 72 % UTC | 37 % UTC | 23 % UTC | 12 % UTC | 100 nM
22 | 1198212 (kT*kA*dT*dT*dA*dG*dA*dG*dT*dA*dT*eG*eT*eG*kG*k[5mC]) [compound 1198212] | 74 % UTC | 35 % UTC | 10 % UTC | 2 % UTC | 100 nM
23 | 1198213 (kA*kT*dA*dT*dT*dA*dG*dA*dG*dT*dA*eT*eG*eT*kG*kG) [compound 1198213] | 91 % UTC | 33 % UTC | 11 % UTC | 3 % UTC | 100 nM
24 | 1198243 (kG*kA*dT*dT*dT*dA*dG*dG*dA*dT*dG*e[5mC]*eA*eT*kG*kG; antisense) [compound 1198243] | 55 % UTC | 28 % UTC | 10 % UTC | 5 % UTC | < 30 nM
25 | 1198267 (kA*kG*dT*dG*dT*dA*dT*dG*dT*d[5mC]*dA*eG*eA*eA*kG*kA; antisense) [compound 1198267] | 78 % UTC | 44 % UTC | 15 % UTC | 3 % UTC | 100 nM
26 | 1198268 (kA*kA*dG*dT*dG*dT*dA*dT*dG*dT*d[5mC]*eA*eG*eA*kA*kG; antisense) [compound 1198268] | 83 % UTC | 52 % UTC | 17 % UTC | 5 % UTC | 100 nM
